According to the NIST ThermoML archive (doi:10.1016/j.fluid.2018.04.024):

Conditions: Liquid, Vibrating tube method

CCCCC(=O)OC [methyl pentanoate]
mass density [kg/m3]
Conditions | 293.15 K | 303.15 K | 313.15 K | 323.15 K | 333.15 K | 343.15 K | 353.15 K | 363.15 K
100 kPa | 890.18 | 879.57 | 869.49 | 858.83 | 848.52 | 837.8 | 827.35 | 816.63
1000 kPa | 890.39 | 880.52 | 869.89 | 859.81 | 849.45 | 839.04 | 828.43 | 817.89
3000 kPa | 892.23 | 882.29 | 871.87 | 861.81 | 851.71 | 841.41 | 831.13 | 820.7
5000 kPa | 893.59 | 884.05 | 873.76 | 863.85 | 853.79 | 843.76 | 833.48 | 823.32
10000 kPa | 897.77 | 888.3 | 878.33 | 868.67 | 858.86 | 849.05 | 839.27 | 829.23
15000 kPa | 901.59 | 892.37 | 882.44 | 873.18 | 863.66 | 854.23 | 844.84 | 835.46
20000 kPa | 905.28 | 896.14 | 886.62 | 877.67 | 868.26 | 859.25 | 849.86 | 840.59
25000 kPa | 908.91 | 899.89 | 890.61 | 881.64 | 872.72 | 863.69 | 854.79 | 845.61
30000 kPa | 912.4 | 903.55 | 894.38 | 885.65 | 876.79 | 868.17 | 859.45 | 850.57
35000 kPa | 915.63 | 906.97 | 898.09 | 889.44 | 880.79 | 872.41 | 863.9 | 855.31
40000 kPa | 918.78 | 910.27 | 901.45 | 893.13 | 884.78 | 876.28 | 868 | 859.8
50000 kPa | 925.12 | 916.73 | 908.24 | 900.12 | 892.02 | 884.03 | 875.94 | 868.09
60000 kPa | 930.63 | 922.74 | 914.32 | 906.77 | 898.8 | 890.84 | 883.37 | 875.9
